Experimental data as given in patent US11084821B2 (MISSION THERAPEUTICS LIMITED, priority 2016, dated 2021).
pIC50: −log10 of the molar value.

Biological target: USP30 (Homo sapiens (Human), UniProt Q70CQ3)
Experiment: USP30 Biochemical IC50 Assay
Conditions: fluorescence polarisation, TAMRA labelled peptide linked to ubiquitin; enzyme and compound incubated 30 min; read after 2 h at room temperature; read-out: IC50 range
Experimental: USP30 Biochemical IC50 Assay
Dilution plates were prepared at 21 times the final concentration (2100 μM for a final concentration of 100 μM) in 50% DMSO in a 96-well polypropylene V-bottom plate (Greiner #651201). A typical 8-point dilution series would be 100, 30, 10, 3, 1, 0.3, 0.1, 0.03 μM final. Reactions were performed in duplicate in black 384 well plates (small volume, Greiner 784076) in a final reaction volume of 21 μl. Either 1 μl of 50% DMSO or diluted compound was added to the plate. USP30 was diluted in reaction buffer (40 mM Tris, pH 7.5, 0.005% Tween 20, 0.5 mg/ml BSA, 5 mM beta-mercaptoethanol) to the equivalent of 0.05 μl/well and 10 μl of diluted USP30 was added to the compound. Enzyme and compound were incubated for 30 min at room temp. Reactions were initiated by the addition of 50 nM of TAMRA labelled peptide linked to ubiquitin via an iso-peptide bond as fluorescence polarisation substrate. Reactions were read immediately after addition of substrate and following a 2 h incubation at room temperature. Readings were performed on a Pherastar Plus (BMG Labtech). Excitation 540 nm; Emission 590 nm.

USP30, sequence (Q70CQ3 57-517): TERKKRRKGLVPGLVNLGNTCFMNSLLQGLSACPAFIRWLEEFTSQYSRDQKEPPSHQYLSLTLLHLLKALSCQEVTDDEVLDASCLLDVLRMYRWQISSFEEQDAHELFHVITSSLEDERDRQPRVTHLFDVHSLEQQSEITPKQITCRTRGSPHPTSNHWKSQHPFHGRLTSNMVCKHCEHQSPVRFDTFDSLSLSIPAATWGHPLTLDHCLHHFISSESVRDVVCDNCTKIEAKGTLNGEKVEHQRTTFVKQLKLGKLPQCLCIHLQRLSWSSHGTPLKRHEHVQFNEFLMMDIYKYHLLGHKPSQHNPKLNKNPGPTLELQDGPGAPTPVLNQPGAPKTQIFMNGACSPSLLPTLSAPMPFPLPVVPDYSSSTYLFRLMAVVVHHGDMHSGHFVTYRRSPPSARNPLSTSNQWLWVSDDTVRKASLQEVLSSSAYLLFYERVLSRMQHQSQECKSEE

Compound	pIC50
N#Cc1cccc(-c2cccnc2N2CCO[C@H]3CN(C#N)C[C@H]32)c1 (racemic) [Example 23, rac-(4aR,7aS)-4-(5-(3-Cyanophenyl)pyridin-6-yl)hexahydropyrrolo[3,4-b][1,4]oxazine-6(2H)-carbonitrile]	8.00 to 9.00
N#CN1C[C@H]2OCCN(c3ccc(-c4ccccc4)nn3)[C@H]2C1 (relative stereo) [Example 2, cis-4-(6-Phenylpyridazin-3-yl)hexahydropyrrolo[3,4-b][1,4]oxazine-6(2H)-carbonitrile]	6.00 to 7.00
N#CN1C[C@@H]2OCCN(c3nc4ccc(F)cc4s3)[C@@H]2C1 (relative stereo) [Example 3, cis-4-(6-Fluorobenzo[d]thiazol-2-yl)hexahydropyrrolo[3,4-b][1,4]oxazine-6(2H)-carbonitrile]	5.00 to 6.00
N#CN1C[C@@H]2OCCN(c3cc(-c4ccccc4)ccn3)[C@@H]2C1 (relative stereo) [Example 4, cis-4-(4-Phenylpyridin-2-yl)hexahydropyrrolo[3,4-b][1,4]oxazine-6(2H)-carbonitrile]	5.00 to 6.00
N#CN1C[C@@H]2OCCN(c3ccc(-c4ccccc4)cn3)[C@@H]2C1 (relative stereo) [Example 5, cis-4-(5-Phenylpyridin-2-yl)hexahydropyrrolo[3,4-b][1,4]oxazine-6(2H)-carbonitrile]	6.00 to 7.00
N#CN1C[C@@H]2OCCN(c3cccc(-c4ccccc4)n3)[C@@H]2C1 (relative stereo) [Example 6, cis-4-(6-Phenylpyridin-2-yl)hexahydropyrrolo[3,4-b][1,4]oxazine-6(2H)-carbonitrile]	6.00 to 7.00
N#CN1C[C@@H]2OCCN(c3nccc(-c4ccccc4)n3)[C@@H]2C1 (relative stereo) [Example 7, cis-4-(4-Phenylpyrimidin-2-yl)hexahydropyrrolo[3,4-b][1,4]oxazine-6(2H)-carbonitrile]	6.00 to 7.00
N#CN1C[C@H]2CCN(c3ncc(-c4ccccc4)s3)[C@H]2C1 (relative stereo) [Example 8, cis-1-(5-Phenylthiazol-2-yl)hexahydropyrrolo[3,4-b]pyrrole-5(1H)-carbonitrile]	6.00 to 7.00
N#CN1C[C@H]2OCCN(c3ncc(-c4ccccc4)s3)[C@H]2C1 (relative stereo) [Example 9, cis-4-(5-Phenylthiazol-2-yl)hexahydropyrrolo[3,4-b][1,4]oxazine-6(2H)-carbonitrile]	6.00 to 7.00
N#CN1C[C@@H]2OCCN(c3ncc(-c4ccccc4)s3)[C@H]2C1 (relative stereo) [Example 10, trans-4-(5-Phenylthiazol-2-yl)hexahydropyrrolo[3,4-b][1,4]oxazine-6(2H)-carbonitrile]	6.00 to 7.00
N#CN1CC2CCN(c3ccccc3)C2C1 (centres unmarked) [Example 1, 1-Phenylhexahydropyrrolo[3,4-b]pyrrole-5(1H)-carbonitrile]	5.00 to 6.00
N#CN1CC2CCCN(c3ncc(-c4ccccc4)s3)C2C1 (centres unmarked) [Example 11, 1-(5-Phenylthiazol-2-yl)octahydro-6H-pyrrolo[3,4-b]pyridine-6-carbonitrile]	5.00 to 6.00
CN(c1ncc(-c2ccccc2)s1)C1CCN(C#N)C1 (centres unmarked) [Example 13, 3-(Methyl(5-phenylthiazol-2-yl)amino)pyrrolidine-1-carbonitrile]	5.00 to 6.00
CN(c1ccc(-c2ccccc2)cn1)C1CCN(C#N)C1 (centres unmarked) [Example 14, 3-(Methyl(5-phenylpyridin-2-yl)amino)pyrrolidine-1-carbonitrile]	5.00 to 6.00
N#CN1C[C@H]2CCN(c3nc4ccc(OC(F)(F)F)cc4[nH]3)[C@H]2C1 [Example 15, (3aR,6aR)-1-(6-(Trifluoromethoxy)-1H-benzo[d]imidazol-2-yl)hexahydropyrrolo[3,4-b]pyrrole-5(1H)-carbonitrile]	7.00 to 8.00
N#Cc1ccc2nc(N3CC[C@@H]4CN(C#N)C[C@@H]43)[nH]c2c1 [Example 16, 2-((3aR,6aR)-5-Cyanohexahydropyrrolo[3,4-b]pyrrol-1(2H)-yl)-1H-benzo[d]imidazole-6-carbonitrile]	6.00 to 7.00

Next, values leading:

pIC50	Compound
8.00 to 9.00	N#Cc1cccc(-c2cnc(N3CCO[C@@H]4CN(C#N)C[C@@H]43)nc2)c1 (racemic) [Example 24, rac-(4aR,7aS)-4-(5-(3-Cyanophenyl)pyrimidin-2-yl)hexahydropyrrolo[3,4-b][1,4]oxazine-6(2H)-carbonitrile]
8.00 to 9.00	N#Cc1cccc(-c2cnc(N3CCO[C@@H]4CN(C#N)C[C@@H]43)cn2)c1 (racemic) [Example 25, rac-(4aR,7aS)-4-(5-(3-Cyanophenyl)pyrazin-2-yl)hexahydropyrrolo[3,4-b][1,4]oxazine-6(2H)-carbonitrile]
8.00 to 9.00	N#Cc1ccnc(-c2ccc(N3CCO[C@@H]4CN(C#N)C[C@@H]43)nc2)c1 (racemic) [Example 26, rac-(4aR,7aS)-4-(4-Cyano-[2,3′-bipyridin]-6′-yl)hexahydropyrrolo[3,4-b][1,4]oxazine-6(2H)-carbonitrile]
7.00 to 8.00	N#Cc1cccc(-c2ccc(N3CCO[C@@H]4CN(C#N)C[C@@H]43)nc2)n1 (racemic) [Example 27]
8.00 to 9.00	N#Cc1cc(-c2ccc(N3CCO[C@H]4CN(C#N)C[C@H]43)nc2)ccn1 (single isomer, unassigned) [Example 19, cis-4-(2′-Cyano-[3,4′-bipyridin]-6-yl)hexahydropyrrolo[3,4-b][1,4]oxazine-6(2H)-carbonitrile]
7.00 to 8.00	N#Cc1cc(-c2ccc(N3CCO[C@H]4CN(C#N)C[C@H]43)nc2)ccn1 (single isomer, unassigned) [Example 20, cis-4-(2′-Cyano-[3,4′-bipyridin]-6-yl)hexahydropyrrolo[3,4-b][1,4]oxazine-6(2H)-carbonitrile]
6.00 to 7.00	N#Cc1cc(-c2ccc(N3CCO[C@H]4CN(C#N)C[C@H]43)nn2)ccn1 (single isomer, unassigned) [Example 21, cis-4-(6-(2-Cyanopyridin-4-yl)pyridazin-3-yl)hexahydropyrrolo[3,4-b][1,4]oxazine-6(2H)-carbonitrile]
7.00 to 8.00	N#Cc1cc(-c2ccc(N3CCO[C@H]4CN(C#N)C[C@H]43)nn2)ccn1 (single isomer, unassigned) [Example 22, cis-4-(6-(2-Cyanopyridin-4-yl)pyridazin-3-yl)hexahydropyrrolo[3,4-b][1,4]oxazine-6(2H)-carbonitrile]
6.00 to 7.00	COc1ccc2nc(N3CC[C@@H]4CN(C#N)C[C@@H]43)[nH]c2c1 [Example 17, (3aR,6aR)-1-(6-Methoxy-1H-benzo[d]imidazol-2-yl)hexahydropyrrolo[3,4-b]pyrrole-5(1H)-carbonitrile]
6.00 to 7.00	CN(c1nc2ccc(C(F)(F)F)cc2[nH]1)[C@@H]1CCN(C#N)C1 [Example 18, (R)-3-(Methyl(6-(trifluoromethyl)-1H-benzo[d]imidazol-2-yl)amino)pyrrolidine-1-carbonitrile]
